From BindingDB's records for doi:10.1021/jm00107a048 (Roche Research Center, 1991)

target: Platelet-activating factor receptor (Canis lupus familiaris); test: PAF-antagonist activity determined in dog platelets by PAF-binding assay

| SMILES | IC50 [nM] |
| --- | --- |
| Cc1nnc2n1-c1sc(C#CCn3c4c(c5cc(Cl)ccc53)CCCCC4)cc1C(c1ccccc1Cl)=NC2 | 70 |
| Cc1nnc2n1-c1sc(C#CCN3C(=O)C(=O)c4ccccc43)cc1C(c1ccccc1Cl)=NC2 | 7 |
| O=c1c2ccccc2c2ccccc2n1CC#Cc1cc2c(s1)-n1c(CO)nnc1CN=C2c1ccccc1Cl | 75 |
| Cc1nnc2n1-c1sc(C#CCN3C(=O)Cn4ccc5c(Cl)ccc3c54)cc1C(c1ccccc1Cl)=NC2 | 15 |
| Cc1nnc2n1-c1sc(C#CCN3C(=O)c4cccc5cccc(c45)C3=O)cc1C(c1ccccc1Cl)=NC2 | 12 |
| Cc1nnc2n1-c1sc(C#CCn3c(=O)c4cc(Cl)ccc4c4ccc(Cl)cc43)cc1C(c1ccccc1Cl)=NC2 | 30 |
| Cc1nnc2n1-c1sc(C#CCn3c(=O)n(CCN(C)C)c(=O)c4ccccc43)cc1C(c1ccccc1Cl)=NC2 | 150 |
| COc1cc2c(cc1OC)C(=O)N(CC#Cc1cc3c(s1)-n1c(C)nnc1CN=C3c1ccccc1Cl)CC2 | 25 |
| Cc1nnc2n1-c1ccc(I)cc1C(c1ccccc1F)NC2 (stereo not given) | 1000 |
| Cc1nnc2n1-c1sc(C#CCN3Cc4cccc5cccc(c45)C3=O)cc1C(c1ccccc1Cl)=NC2 | 4 |
| Cc1nnc2n1-c1ccc(C#CCN3C(=O)CCc4ccccc43)cc1C(c1ccc(Cl)cc1)=NC2 | 100 |
| C=C=Cn1c(=O)n(CC#Cc2cc3c(s2)-n2c(C)nnc2CN=C3c2ccccc2Cl)c2ccccc21 | 6 |
| Cc1nnc2n1-c1sc(C#CCn3c4c(c5ccccc53)CCCCC4)cc1C(c1ccccc1Cl)=NC2 | 15 |
| Cc1nnc2n1-c1sc(C#CCN3C(=O)CCc4cc(Cl)cc(Cl)c43)cc1C(c1ccccc1Cl)=NC2 | 9 |
| Cc1nnc2n1-c1sc(C#CCN3C(=O)C4(C)CCCc5cccc3c54)cc1C(c1ccccc1Cl)=NC2 (stereo not given) | 12 |
| Cc1nnc2n1-c1sc(C#CCn3c4ccccc4c4ccccc43)cc1C(c1ccccc1Cl)=NC2 | 120 |
| Cc1nnc2n1-c1sc(C#CCn3c(=O)c4ccccc4c4ccccc4c3=O)cc1C(c1ccccc1Cl)=NC2 | 51 |
| O=C1c2ccccc2C(=O)N1CC#Cc1ccc2c(c1)C(c1ccccc1F)=NCc1nncn1-2 | 1000 |
| Cc1nnc2n1-c1sc(C#CCn3c(=O)n(C)c4ccccc43)cc1C(c1ccccc1Cl)=NC2 | 0.3 |
| Cc1nnc2n1-c1sc(C#CCn3c4c(c5ccccc53)CCCC4)cc1C(c1ccccc1Cl)=NC2 | 7 |

| SMILES | IC50 [nM] |
| --- | --- |
| Cc1nnc2n1-c1sc(C#CCn3c(=O)c4ccccc4c4ccccc43)cc1C(c1ccccc1Cl)NC2=O (stereo not given) | 560 |
| Cc1nnc2n1-c1sc(C#CCn3c(=O)c4ccccc4c4ccccc43)cc1C(c1cc(O)ccc1Cl)=NC2 | 15 |
| Cc1nnc2n1-c1ccc(C#CCN3C(=O)CCc4ccccc43)cc1C(c1ccccc1F)=N[C@H]2C | 6 |
| Cc1nnc2n1-c1sc(C#CCN3C(=O)CCc4ccccc43)cc1C(c1cc([N+](=O)[O-])ccc1Cl)=NC2 | 75 |
| Cc1nnc2n1-c1sc(I)cc1C(c1ccccc1Cl)=NC2C (stereo not given) | 120 |
| Cc1nnc2n1-c1sc(C#CCN3C(=O)CC(C)(C)c4ccccc43)cc1C(c1ccccc1Cl)=NC2 | 12 |
| Cc1nnc2n1-c1sc(C#CCN3C(=O)c4cccc5cccc3c45)cc1C(c1ccccc1Cl)=NC2 | 5 |
| O=C1CCc2ccccc2N1CC#Cc1ccc2c(c1)C(c1ccc(Cl)cc1)=NCc1nnc(C(F)(F)F)n1-2 | 1000 |
| Cc1nnc2n1-c1sc(C#CCn3c(=O)[nH]c4ccccc43)cc1C(c1ccccc1Cl)=NC2 | 9 |
| Cc1nnc2n1-c1ccc(C#CCN3C(=O)c4ccccc4C3=O)cc1C(c1ccccc1Cl)=NC2 | 20 |
| Cc1nnc2n1-c1sc(C#CCn3c(=O)c4ccccc4c4ccccc43)cc1C(c1ccccc1Cl)=NC2O (stereo not given) | 25 |
| Cc1nnc2n1-c1sc(C#CCn3c(=O)n(-c4ccccc4)c4ccccc43)cc1C(c1ccccc1Cl)=NC2 | 1 |
| Cc1nnc2n1-c1sc(C#CCN3C(=O)CCc4ccccc43)cc1C(c1ccccc1Cl)=NC2 | 0.2 |
| Cc1nnc2n1-c1sc(C#CCOc3cccnc3)cc1C(c1ccccc1Cl)=NC2 | 4 |
| Cc1nnc2n1-c1sc(C#CCn3ccc4ccccc4c3=O)cc1C(c1ccccc1Cl)=NC2 | 1 |
| Cc1nnc2n1-c1sc(C#CCC34CCCc5cccc(c53)NC4=O)cc1C(c1ccccc1Cl)=NC2 (stereo not given) | 0.7 |
| Cc1nnc2nc(-c3ccccc3F)c3cc(C#CCN4C(=O)c5ccccc5C4=O)ccc3n12 | 300 |
| Cc1nnc2n1-c1sc(C#CCn3c(=O)n(CCN(C)C)c4ccccc43)cc1C(c1ccccc1Cl)=NC2 | 30 |
| Cc1nnc2n1-c1sc(C#CCN3C(=O)Cc4ccccc43)cc1C(c1ccccc1Cl)=NC2 | 3 |
| Cc1nnc2n1-c1sc(C#CCn3c(=O)c4ccccc4c4ccccc43)cc1C(c1ccccc1Cl)=NC2C (stereo not given) | 250 |

| SMILES | IC50 [nM] |
| --- | --- |
| Cc1nnc2n1-c1sc(C#CCn3c4c(c5cc(Cl)ccc53)CCCC4)cc1C(c1ccccc1Cl)=NC2 | 90 |
| Cc1nnc2n1-c1sc(C#CCN3C(=O)NCc4ccccc43)cc1C(c1ccccc1Cl)=NC2 | 6 |
| Cc1nnc2n1-c1ccc(C#CCN3C(=O)c4ccccc4C3=O)cc1C(c1ccccc1F)=NC2 | 10 |
| Cc1nnc2n1-c1sc(C#CCn3c(=O)c4ccccc4c4ccccc43)cc1C(c1ccccc1Cl)=NC2 | 13 |
| Cc1nnc2n1-c1sc(C#CCn3c(=O)ccc4ccccc43)cc1C(c1ccccc1Cl)=NC2 | 2 |
| Cc1nnc2n1-c1sc(C#CCn3cnc4ccccc43)cc1C(c1ccccc1Cl)=NC2 | 5 |
| Cc1nnc2n1-c1sc(I)cc1C(c1cc([N+](=O)[O-])ccc1Cl)=NC2 | 360 |
| O=C1CCc2ccccc2N1CC#Cc1ccc2c(c1)C(c1ccccc1F)=NCc1nnc(C(F)(F)F)n1-2 | 200 |
| Cc1nnc2n1-c1ccc(I)cc1C(c1ccccc1F)=NC2 | 1000 |
| Cc1nnc2n1-c1ccc(I)cc1C(c1ccccc1Cl)=NC2 | 1000 |
| Cc1nnc2n1-c1ccc(C#CCN3C(=O)CCc4ccccc43)cc1C(c1ccccc1F)=NC2 | 20 |
| CCc1nnc2n1-c1ccc(C#CCN3C(=O)c4ccccc4C3=O)cc1C(c1ccccc1F)=NC2 | 100 |
| Cc1nnc2n1-c1sc(C#CCN3C(=O)COc4ccc(Cl)cc43)cc1C(c1ccccc1Cl)=NC2 | 5 |
| Cc1nnc2n1-c1ccc(C#CCN3C(=O)c4ccccc4C3=O)cc1C(c1ccccc1F)NC2 (stereo not given) | 110 |
| Cc1nnc2n1-c1sc(C#CCn3ncc4ccccc43)cc1C(c1ccccc1Cl)=NC2 | 1 |
| Cc1nnc2n1-c1sc(C#CCN3C(=O)COc4ccccc43)cc1C(c1ccccc1Cl)=NC2 | 0.7 |
| Cc1nnc2n1-c1sc(C#CCN3C(=O)CCc4ccccc43)cc1C(c1cc(O)ccc1Cl)=NC2 | 80 |
| Cc1nnc2n1-c1sc(C#CCn3c(=O)n(C)c(=O)c4ccccc43)cc1C(c1ccccc1Cl)=NC2 | 0.6 |
| Cc1nnc2n1-c1ccc(C#CCOc3cccnc3)cc1C(c1ccccc1Cl)=NC2 | 130 |
| Cc1nnc2n1-c1sc(C#CCN3C(=O)CCc4ccc(Cl)cc43)cc1C(c1ccccc1Cl)=NC2 | 7 |
